Measurements as given in EP4603105A1, “PHARMACEUTICAL COMPOSITION CONTAINING CYCLIC COMPOUND HAVING SELECTIVE KRAS INHIBITORY EFFECT AGAINST HRAS AND NRAS” (CHUGAI SEIYAKU KABUSHIKI KAISHA, priority 2022, dated 2024).
*1 amine or outer side, *2 acyl side, *3 side chain or, on linkers, in order; H or OH if unused. Where a SMILES comes first, the peptide text is derived from it. Bridges are numbered along the chain shown (N, C = ends). [ ]: non-standard residue; d: D form. The star is where a group is joined. hPhe(3-Cl-4-CF3) = N[C@@H](CCc1ccc(C(F)(F)F)c(Cl)c1)C(=O)O; X22 = C=CCCN([C@@H](Cc1ccc(C(F)(F)F)cc1)C(=O)[*:2])[*:1]; NPrPhe(4-CF3) = CCCN[C@@H](Cc1ccc(C(F)(F)F)cc1)C(=O)O; NMeGly(cPent) = CN[C@H](C(=O)O)C1CCCC1; Ac4c(3,3-Me2) = CC1(C)CC(N)(C(=O)O)C1; Aze(3S-Me) = C[C@H]1CN[C@@H]1C(=O)O; NMeD = CN[C@@H](CC(=O)O)C(=O)O; NMeL = CN[C@@H](CC(C)C)C(=O)O; Morpholide = C1CN(*)CCO1; NMeA = CN[C@@H](C)C(=O)O; Ac5c = NC1(C(=O)O)CCCC1; Sar = CNCC(=O)O; Propyl = CCC*

How the values were obtained:
[1] = system: human lung cancer strain NCI-H441; format: cell-based
In short: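 Signal came from […] measured per well once the reagent was added. Beforehand, cells were cultured at 37°C and 5% carbon dioxide on a compound series serially diluted in dimethyl sulfoxide.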

HRAS wild-type protein = HRAS wild-type protein (Homo sapiens, UniProt P01112); experiment: Binding to HRAS by surface plasmon resonance (SPR), KD and KD ratio to KRAS
Chain of HRAS wild-type protein (P01112 whole entry): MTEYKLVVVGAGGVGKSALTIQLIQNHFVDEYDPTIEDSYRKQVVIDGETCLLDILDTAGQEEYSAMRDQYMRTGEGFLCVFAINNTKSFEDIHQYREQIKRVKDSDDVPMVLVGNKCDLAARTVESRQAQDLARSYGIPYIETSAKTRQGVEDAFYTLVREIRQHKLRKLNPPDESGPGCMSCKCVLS
In short: (§1)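 Recombinant RAS proteins bearing a biotinylated Avi tag and loaded with GDP served as the captured ligand, recaptured fresh every cycle. Binding responses were referenced to an uncoated surface and a buffer-only blank cycle. Dissociation constants were obtained by 1:1 model fitting at 30°C.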

[2] = molecular target: GDP-bound NRAS wild-type protein (Homo sapiens, UniProt P01111); experiment: Binding to NRAS by surface plasmon resonance (SPR), KD and KD ratio to KRAS
Chain of GDP-bound NRAS wild-type protein (P01111 whole entry): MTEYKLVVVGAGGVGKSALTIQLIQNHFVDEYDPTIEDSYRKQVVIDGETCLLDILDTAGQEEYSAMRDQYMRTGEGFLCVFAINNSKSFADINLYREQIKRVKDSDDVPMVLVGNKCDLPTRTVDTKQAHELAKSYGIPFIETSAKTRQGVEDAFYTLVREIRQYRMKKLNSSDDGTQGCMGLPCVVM
In short: as §1

[3] = ratio of KD for HRAS wild-type protein to KD for KRAS
[4] = ratio of KD for GDP-bound NRAS wild-type protein to KD for KRAS
[5] = ratio of KD value for HRAS wild-type protein to KD value for KRAS (SPR)
[6] = ratio of KD value for GDP-bound NRAS wild-type protein to KD value for KRAS (SPR)
[7] = ratio of the KD value with respect to HRAS wild-type protein to the KD value with respect to KRAS
[8] = ratio of the KD value with respect to GDP-bound NRAS wild-type protein to the KD value with respect to KRAS

Row | SMILES | IC50 [1] [nM] | HRAS /KRAS (HRAS wild-type protein; [3]) | NRAS /KRAS [2, 4] | HRAS /KRAS (HRAS wild-type protein; [5]) | NRAS /KRAS [2, 6] | HRAS /KRAS (HRAS wild-type protein; [7]) | NRAS /KRAS [2, 8]
1 | CCCN1C(=O)[C@@H]2[C@@H](C)CN2C(=O)[C@H](C)N(C)C(=O)[C@H]([C@@H](C)CC)NC(=O)[C@H](CC(C)C)N(C)C(=O)C[C@@H](C(=O)N2CCOCC2)N(C)C(=O)[C@H](C2CCCC2)N(C)C(=O)C2(CCCC2)NC(=O)[C@@H]2CCCN2C(=O)[C@H](CCc2ccc(C(F)(F)F)c(Cl)c2)NC(=O)CN(C)C(=O)[C@@H]1Cc1ccc(C(F)(F)F)cc1 [PP0141] ([NMeL]I[NMeA][Aze(3S-Me)][NPrPhe(4-CF3)][Sar][hPhe(3-Cl-4-CF3)]P[Ac5c][NMeGly(cPent)][NMeD]-Morpholide; lactam N-11) | 3.5 | B (a compound having 3 or more and less than 10 is denoted as B) | C (A compound having a KD ratio of 0.1 or more and less than 3 is denoted as C) | – | – | – | –
2 | CCCOC[C@H]1C(=O)N[C@@H]([C@@H](C)CC)C(=O)N(C)CC(=O)N(C)[C@H]2C/C=C\CCN(C2=O)[C@@H](Cc2ccc(C(F)(F)F)cc2)C(=O)N(C)CC(=O)N[C@@H](CCc2cc(F)c(C(F)(F)F)c(F)c2)C(=O)N2C[C@H](OCC)C[C@H]2C(=O)NC2(CC(C)(C)C2)C(=O)N(C)[C@@H](C2CCCC2)C(=O)N(C)[C@H](C(=O)N(C)CCC)CC(=O)N1C [PP1673] | 6 | – | – | A (a compound having 10 or more and less than 20 is denoted as A) | A (a compound having 10 or more and less than 20 is denoted as A) | – | –
3 | CCCO[C@H](C)[C@@H]1NC(=O)[C@H](CC(C)C)N(C)C(=O)C[C@@H](C(=O)N2CCOCC2)N(C)C(=O)[C@H](C2CCCC2)N(C)C(=O)C2(CC(C)(C)C2)NC(=O)[C@@H]2CCCN2C(=O)[C@H](CCc2ccc(C(F)(F)F)c(Cl)c2)NC(=O)CN(C)C(=O)[C@H](Cc2ccc(C(F)(F)F)cc2)N(CCC)C(=O)CN(C)C(=O)CN(C)C1=O [PP1965] ([NMeL]T(Propyl)[Sar][Sar][NPrPhe(4-CF3)][Sar][hPhe(3-Cl-4-CF3)]P[Ac4c(3,3-Me2)][NMeGly(cPent)][NMeD]-Morpholide; lactam N-11) | 17.4 | – | – | – | – | B (a compound having 3 or more and less than 10 is denoted as B) | B (a compound having 3 or more and less than 10 is denoted as B)
4 | C#CC[C@H]1C(=O)N[C@@H]([C@@H](C)CC)C(=O)N(C)CC(=O)N(C)[C@H]2C/C=C\CCN(C2=O)[C@@H](Cc2ccc(C(F)(F)F)cc2)C(=O)N(C)CC(=O)N[C@@H](CCc2ccc(Cl)c(Cl)c2)C(=O)N2C[C@H](OCC)C[C@H]2C(=O)NC2(CC(C)(C)C2)C(=O)N(C)[C@@H](C2CCCC2)C(=O)N(C)[C@H](C(=O)N(C)CC)CC(=O)N1C [PP2843] | 17.7 | A (a compound having 10 or more and less than 20 is denoted as A) | A (a compound having 10 or more and less than 20 is denoted as A) | – | – | – | –
5 | CCCN(C)C(=O)[C@@H]1CC(=O)N(C)[C@@H](C2CCC2)C(=O)N[C@@H]([C@@H](C)CC)C(=O)N(C)CC(=O)N(C)[C@H]2C/C=C\CCN(C2=O)[C@@H](Cc2ccc(C(F)(F)F)cc2)C(=O)N(C)CC(=O)N[C@@H](CCc2cc(F)c(C(F)(F)F)c(F)c2)C(=O)N2C[C@@H](C)C[C@H]2C(=O)NC2(CCC2)C(=O)N(C)[C@@H](C2CCCC2)C(=O)N1C [PP2083] | 10.3 | – | – | – | – | B (a compound having 3 or more and less than 10 is denoted as B) | A (a compound having 10 or more and less than 20 is denoted as A)
6 | CCC[C@H]1C(=O)N[C@@H]([C@@H](C)CC)C(=O)N(C)CC(=O)N(C)[C@H]2C/C=C\CCN(C2=O)[C@@H](Cc2ccc(C(F)(F)F)cc2)C(=O)N(C)CC(=O)N[C@@H](CCc2ccc3sc(F)c(C)c3c2)C(=O)N2C[C@H](OCC)C[C@H]2C(=O)NC2(CC(C)(C)C2)C(=O)N(C)[C@@H](C(CC)CC)C(=O)N(C)[C@H](C(=O)N(C)C)CC(=O)N1C [PP2892] | 8 | A (a compound having 10 or more and less than 20 is denoted as A) | A (a compound having 10 or more and less than 20 is denoted as A) | – | – | – | –
7 | CCC[C@H]1C(=O)N[C@@H]([C@@H](C)CC)C(=O)N2CCC[C@H]2C(=O)N(C)[C@H]2C/C=C\CCN(C2=O)[C@@H](Cc2ccc(C)cc2)C(=O)N(C)CC(=O)N[C@@H](CCc2cc(F)c(C(F)(F)F)c(F)c2)C(=O)N2C[C@H](OCC)C[C@H]2C(=O)N(C)C2(CCC2)C(=O)N(C)[C@@H](C2CCCC2)C(=O)N(C)[C@H](C(=O)N2CCCCC2)CC(=O)N1C [PP3115] | 5.7 | B (a compound having 3 or more and less than 10 is denoted as B) | A (a compound having 10 or more and less than 20 is denoted as A) | – | – | – | –
8 | CCO[C@@H]1C[C@H]2C(=O)NC3(CCC3)C(=O)N(C)[C@@H](C3CCCC3)C(=O)N(C)[C@H](C(=O)N(C)C)CC(=O)N(CC)[C@@H](CC(C)C)C(=O)N[C@@H]([C@@H](C)CC)C(=O)N(C)CC(=O)N(C)[C@H]3C/C=C\CCN(C3=O)[C@@H](Cc3ccc(C(F)(F)F)cc3)C(=O)N(C)CC(=O)N[C@@H](CCc3cc(F)c(C(F)(F)F)c(F)c3)C(=O)N2C1 [PP1765] | 16.8 | – | – | A (a compound having 10 or more and less than 20 is denoted as A) | A (a compound having 10 or more and less than 20 is denoted as A) | – | –
9 | CC[C@H](C)[C@@H]1NC(=O)[C@H](CC(C)C)N(C)C(=O)C[C@@H](C(=O)N2CCOCC2)N(C)C(=O)[C@H](C2CCCCC2)N(C)C(=O)C2(CCCC2)NC(=O)[C@@H]2CCCN2C(=O)[C@H](CCc2cc(F)c(C(F)(F)F)c(F)c2)NC(=O)CN(C)C(=O)[C@H](Cc2ccc(C(F)(F)F)cc2)N2CCCC[C@@H](C2=O)N(C)C(=O)CN(C)C1=O [PP0567] | 8.3 | – | – | – | – | B (a compound having 3 or more and less than 10 is denoted as B) | B (a compound having 3 or more and less than 10 is denoted as B)
10 | CCO[C@@H]1C[C@H]2C(=O)NC3(CCC3)C(=O)N(C)[C@@H](C3CCCC3)C(=O)N(C)[C@H](C(=O)N(C)C)CC(=O)N(C)[C@@H](Cc3ccc(Cl)cc3)C(=O)N[C@@H]([C@@H](C)CC)C(=O)N(C)CC(=O)N(C)[C@H]3CCCCCN(C3=O)[C@@H](Cc3ccc(C(F)(F)F)cc3)C(=O)N(C)CC(=O)N[C@@H](CCc3cc(F)c(C(F)(F)F)c(F)c3)C(=O)N2C1 [PP0940] | 110 | C (A compound having a KD ratio of 0.1 or more and less than 3 is denoted as C) | B (a compound having 3 or more and less than 10 is denoted as B) | – | – | – | –
11 | CCO[C@@H]1C[C@H]2C(=O)NC3(CCCC3)C(=O)N(C)[C@@H](C3CCCC3)C(=O)N(C)[C@H](C(=O)N(C)C)CC(=O)N(C)[C@@H](C)C(=O)N[C@@H]([C@@H](C)CC)C(=O)N(C)CC(=O)N(C)[C@H]3CCCCCN(C3=O)[C@@H](Cc3ccc(C(F)(F)F)cc3)C(=O)N(C)CC(=O)N[C@@H](CCc3cc(F)c(C(F)(F)F)c(F)c3)C(=O)N2C1 [PP0475] | 18.7 | – | – | – | – | B (a compound having 3 or more and less than 10 is denoted as B) | B (a compound having 3 or more and less than 10 is denoted as B)
12 | CCO[C@@H]1C[C@H]2C(=O)NC3(CCC(F)(F)CC3)C(=O)N(C)[C@@H](C3CCCC3)C(=O)N(C)[C@H](C(=O)N(C)C)CC(=O)N(C)[C@@H](C)C(=O)N[C@@H]([C@@H](C)CC)C(=O)N(C)CC(=O)N(C)[C@H]3CCCCCN(C3=O)[C@@H](Cc3ccc(C(F)(F)F)cc3)C(=O)N(C)CC(=O)N[C@@H](CCc3cc(F)c(C(F)(F)F)c(F)c3)C(=O)N2C1 [PP0725] | 194 | – | – | – | – | B (a compound having 3 or more and less than 10 is denoted as B) | B (a compound having 3 or more and less than 10 is denoted as B)
13 | CCC[C@H]1C(=O)N[C@@H]([C@@H](C)CC)C(=O)N(C2CC2)CC(=O)N(C)[C@H]2C/C=C\CCN(C2=O)[C@@H](CC2CCC(F)(F)CC2)C(=O)N(C)CC(=O)N[C@@H](CCc2ccc(C(F)(F)F)c(OC)c2)C(=O)N2C[C@H](OCC)C[C@H]2C(=O)N(C)C2(CCC2)C(=O)N(C)[C@@H](C2CCCC2)C(=O)N(C)[C@H](C(=O)N(C)C)CC(=O)N1C [PP2352] | 15.6 | – | – | – | – | A (a compound having 10 or more and less than 20 is denoted as A) | A (a compound having 10 or more and less than 20 is denoted as A)
14 | CCO[C@@H]1C[C@H]2C(=O)N(C)C3(CCCC3)C(=O)N(C)[C@@H](C3CCCC3)C(=O)N(C)[C@H](C(=O)N(C)C)CC(=O)N(C)[C@@H](C3CC3)C(=O)N[C@@H]([C@@H](C)CC)C(=O)N(C)CC(=O)N(C)[C@H]3C/C=C\CCN(C3=O)[C@@H](Cc3ccc(C)cc3)C(=O)N(C)CC(=O)N[C@@H](CCc3cc(F)c(C(F)(F)F)c(F)c3)C(=O)N2C1 [PP1808] | 8.8 | – | – | B (a compound having 3 or more and less than 10 is denoted as B) | A (a compound having 10 or more and less than 20 is denoted as A) | – | –
15 | C=CCCN1C(=O)CN(C)C(=O)CN(C)C(=O)[C@H]([C@@H](C)CC)NC(=O)[C@H](CC(C)C)N(C)C(=O)C[C@@H](C(=O)N2CCOCC2)N(C)C(=O)[C@H](C2CCCC2)N(C)C(=O)C2(CCCC2)NC(=O)[C@@H]2CCCN2C(=O)[C@H](CCc2ccc(C(F)(F)F)c(Cl)c2)NC(=O)CN(C)C(=O)[C@@H]1Cc1ccc(C(F)(F)F)cc1 [PP0129] ([NMeL]I[Sar][Sar][X22][Sar][hPhe(3-Cl-4-CF3)]P[Ac5c][NMeGly(cPent)][NMeD]-Morpholide; lactam N-11) | 8.8 | C (A compound having a KD ratio of 0.1 or more and less than 3 is denoted as C) | B (a compound having 3 or more and less than 10 is denoted as B) | – | – | – | –
